This note sets out measurements from patent US12022844B2, “Nutritional composition, food/drink composition using nutritional composition, and modified milk powder using nutritional composition” (priority 2018, dated 2024).

Common to all, as to assay type: cell-based
For experiment [1], the system named is Bifidobacterium bifidum ATCC29521. The experiment is described as follows: Single bacterial culturing with HMO as sugar source, OD650. The following applies: ATCC 29521^T, sugar source 2%, anaerobic 37° C., 8 h, Table 5. The protocol:
(§1) A10% solution of glucose (manufactured by Nakarai Tesque Inc.), and 2′-FL ((≥95%) Funakoshi, available from sigma), and LNnT (manufactured by ELICITYL) as examples of HMOs was prepared with ion exchanged water, and was subjected to sterile filtration using Millex-GV (SLGV033RS).
(§2) Lactobacilli MRS Broth (BD) (0.05% L-Cysteine Hydrochloride for Bacteria of the genus Bifidobacterium) was added to strains of Table 1 below (bacteria belonging to Bifidobacterium bifidum) and Table 2 below. After a sterilization treatment, 3% of the bacterial solution was inoculated, and anaerobically cultured (pre-pre cultured) at 37° C. for 16 h.
(§3) The following day, 1% glucose was added to a modified BL agar medium (“Studies on Bifidobacteria” by Tomotari Mitsuoka, p. 306, Japan Bifidus Foundation, issued in 1994) noted in Table 3, for preparation. After a sterilization treatment, 3% of the pre-pre cultured bacterial solution was inoculated, and anaerobically pre-cultured (pre-cultured) at 37° C. for 12 h.
(§4) The pre-cultured bacterial solution was collected and washed once with a sterile physiological saline solution. Then, mass-up was performed to an equal volume with the modified BL agar medium (“Studies on Bifidobacteria” by Tomotari Mitsuoka, p. 306, Japan Bifidus Foundation, issued in 1994) noted in Table 3 to prepare a suspended bacterial solution.
(§5) The modified BL agar medium (“Studies on Bifidobacteria” by Tomotari Mitsuoka, p. 306, Japan Bifidus Foundation, issued in 1994) noted in Table 3 was prepared at a capacity of 60%, and was subjected to an autoclave sterilization treatment. Then, 40% of each sugar solution prepared in (1) was aseptically added so as to prepare a medium with a sugar concentration of 4%.
(§6) The medium prepared in the above (3) was dispensed at a capacity that is half the capacity for culturing in a 96-well plate, and the bacterial solution prepared in the above (2) was dispensed at a remaining half capacity such that the bacterial solution had 6%. Then, a final sugar concentration was set to 2%. The plate into which the bacterial solution was dispensed was anaerobically cultured at 37° C. for 8 h.
(§7) OD650 was measured from each well in the plates in the above (4) and the above (5) before (0 h) culturing and after (8 h) culturing, by MICROPLATE READER SH-9000 (manufactured by CORONA ELECTRIC). After turbidity measurement, microbial cells were collected, and DNA extraction was performed. After the DNA extraction, the number of proliferating bacteria of Bifidobacteria/lactobacilli was analyzed by using the bacterial species-specific primer noted in Table 4, by a quantitative PCR method (see “Structural analysis of intestinal flora”—analysis of bacterial flora in human feces using quantitative PCR—by Kouichi Watanabe, Enterobacteriological journal, 20:35-42, 2006).
(§8) Regarding bacteria belonging to Bifidobacterium bifidum in Table 1, each strain was cultured as a single bacterium by 2′-FL or LNnT (HMOs) as a sugar source, and OD650 was measured. Table 5 illustrates OD650 increase values after seven strains of the bacteria belonging to Bifidobacterium bifidum in Table 1 were cultured for 8 h by 2′-FL or LNnT as a sugar source.

The test system of experiment [2] is Bifidobacterium bifidum NITE BP-02431. Described as above. The conditions noted are these: sugar source 2%, anaerobic 37° C., 8 h, Table 5. The protocol:
as §1, §2, §3, §4, §5, §6, §7, §8

Experiment [3] relates to Bifidobacterium bifidum NITE BP-02432. The description is as above. The following applies: sugar source 2%, anaerobic 37° C., 8 h, Table 5. The protocol: as §1, §2, §3, §4, §5, §6, §7, §8
Experiment [4] relates to Bifidobacterium bifidum NITE BP-02433. The description is as above. The following applies: sugar source 2%, anaerobic 37° C., 8 h, Table 5. The procedure:
as §1, §2, §3, §4, §5, §6, §7, §8

Experiment [5] concerns Bifidobacterium bifidum NITE BP-1252. The experiment is described as above. The conditions noted are these: sugar source 2%, anaerobic 37° C., 8 h, Table 5. The procedure: as §1, §2, §3, §4, §5, §6, §7, §8
For experiment [6], the system named is Bifidobacterium bifidum NITE P-02648. The experiment is described as above. The following applies: sugar source 2%, anaerobic 37° C., 8 h, Table 5. The protocol: as §1, §2, §3, §4, §5, §6, §7, §8
In experiment [7] the test system is Bifidobacterium bifidum NITE BP-02429. The experiment is described as above. The conditions noted are these: 8 h. The protocol: as §1, §2, §3, §4
The modified BL agar medium (“Studies on Bifidobacteria” by Tomotari Mitsuoka, p. 306, Japan Bifidus Foundation, issued in 1994) noted in Table 3 was prepared at a capacity of 60%, and was subjected to an autoclave sterilization treatment. Then, 40% of each sugar solution prepared in (1) was aseptically added so as to prepare a medium with a sugar concentration of 4%. […]
OD650 was measured from each well in the plates in the above (4) and the above (5) before (0 h) culturing and after (8 h) culturing, by MICROPLATE READER SH-9000 (manufactured by CORONA ELECTRIC). […] After the DNA extraction, the number of proliferating bacteria of Bifidobacteria/lactobacilli was analyzed by using the bacterial species-specific primer noted in Table 4, by a quantitative PCR method (see “Structural analysis of intestinal flora”—analysis of bacterial flora in human feces using quantitative PCR—by Kouichi Watanabe, Enterobacteriological journal, 20:35-42, 2006).
(§9) Regarding bacteria belonging to Bifidobacterium bifidum in Table 1, each strain was cultured as a single bacterium by 2′-FL or LNnT (HMOs) as a sugar source, and OD650 was measured. […]
Regarding strains in Table 2, each strain was cultured as a single bacterium by 2′-FL or LNnT (HMOs) as a sugar source, and OD650 was measured. […]

For experiment [8], the system named is Bifidobacterium animalis subspecies lactis MCC-525. The experiment is described as follows: Mix-culturing with Bifidobacterium bifidum by HMO as sugar source, quantitative PCR. The conditions noted are these: for Proliferation rate (number of bacteria after mix-culturing for 8 h/number of bacteria after single bacterial culturing): MCC-525 mix-cultured with Bifidobacterium bifidum (NITE BP-02429), sugar source 2%, Table 8; for Proliferation rate of MCC-525 (mix-cultured bacteria after 8 h/single bacterial culturing 8 h): Table 10; for number of proliferating bacteria of MCC-525 in combination with seven strains of Bifidobacterium bifidum compared to single bacterium culture: summary of Table 10. The protocol: as §1, §2, §3, §4, §5
The medium prepared in the above (3) was dispensed at a capacity that is half the capacity for aseptic culturing in a 96-well plate, and each of the bacterial solutions of strains of bacteria belonging to Bifidobacterium bifidum in Table 1 and probiotics having a low ability to assimilate human milk oligosaccharides in Table 2, which was prepared in the above (2), was dispensed at a remaining […] capacity into the medium prepared in the above (3) such that the bacterial solution had 12%. Then, a final sugar concentration was set to 2%. The plate into which the bacterial solution was dispensed was anaerobically cultured at 37° C. for 8 h.
as §7
It was decided to culture Bifidobacterium bifidum (NITE BP-02429) in which availability of 2′-FL or LNnT was found as described above, in combination with strains in Table 2, which cannot use 2′-FL or LNnT. Bifidobacterium bifidum (NITE BP-02429) and the strains in Table 2, which cannot use 2′-FL or LNnT, were mix-cultured by 2′-FL or LNnT as a sugar source, and after culturing for 8 h, the proliferation rate of the number of bacteria of each strain (proliferation rate=the number of bacteria after mix-culturing for 8 h/the number of bacteria after single bacterial culturing) was measured by a quantitative PCR method using each strain-specific oligonucleotide primer noted in Table 4, for the strain in Table 2.
Seven strains of Bifidobacterium bifidum in Table 1 and Bifidobacterium animalis subspecies lactis MCC-525 which cannot use 2′-FL or LNnT were mix-cultured by 2′-FL or LNnT as a sugar source. […]

The test system of experiment [9] is bacteria belonging to Bifidobacterium bifidum in Table 1. The experiment can be described thus: Availability of HMOs by bacteria belonging to Bifidobacterium bifidum (single culturing, summary). The following applies: single bacterial culturing, 8 h; summary of Table 5. The protocol:
as §6, §7, §9

Where [10] appears, read: NITE BP-02429, sugar source 2%, anaerobic 37° C., Table 5.
Setting [11] is: mix-cultured with Bifidobacterium bifidum ATCC 29521^T.
[12] abbreviates: mix-cultured with Bifidobacterium bifidum NITE BP-1252.
[13] abbreviates: mix-cultured with Bifidobacterium bifidum NITE BP-02429.
Setting [14] is: mix-cultured with Bifidobacterium bifidum NITE BP-02431.
The mark [15] stands for this setting: mix-cultured with Bifidobacterium bifidum NITE BP-02432.
[16] abbreviates: mix-cultured with Bifidobacterium bifidum NITE BP-02433.
Setting [17] is: mix-cultured with Bifidobacterium bifidum NITE P-02648.

Turning to 2′-fucosyllactose [2′-FL], the OD650 increase value is reported as 0.060 in experiment [1]; 0.037 in experiment [2]; 0.430 in [3]; 0.431 in [4]; 0.225 in experiment [5]; 0.470 in experiment [6]. The “OD650 increase value” amounted to 0.135 in [7] (NITE BP-02429(PC), sugar source 2%, Table 6) and 0.167 in [7] (setting [10]). Moreover, the “Proliferation rate (number of bacteria after mix-culturing for 8 h/number of bacteria after single bacterial culturing)” value in experiment [8] turned out to be 2.62. In addition, the “Proliferation rate of MCC-525 (mix-cultured bacteria after 8 h/single bacterial culturing 8 h)” value is on record as 2.01 in experiment [8] (setting [11]); 2.06 in [8] (setting [12]); 4.85 in experiment [8] (setting [13]); 3.82 in experiment [8] (setting [14]); 2.45 in experiment [8] (setting [15]); 3.67 in [8] (setting [16]). Also, in experiment [8] (setting [17]), the “Proliferation rate of MCC-525 (mix-cultured bacteria after 8 h/single bacterial culturing 8 h)” value was determined as 4.35. Besides, the “number of proliferating bacteria of MCC-525 in combination with seven strains of Bifidobacterium bifidum compared to single bacterium culture” value in experiment [8] is “promoted”. In experiment [9], the “assimilability by all the bacteria belonging to Bifidobacterium bifidum in Table 1” value is reported as “had assimilability”.

Turning to `CC(=O)N[C@H]1[C@H](O[C@H]2[C@@H](O)[C@@H](CO)O[C@@H](O[C@H]3[C@H](O)[C@@H](O)C(O)O[C@@H]3CO)[C@@H]2O)O[C@H](CO)[C@@H](O[C@@H]2O[C@H](CO)[C@H](O)[C@H](O)[C@H]2O)[C@@H]1O` (mixture of isomers) [LNnT, lacto-N-neotetraose], the OD650 increase value was 0.008 in experiment [1]; 0.535 in experiment [2]; 0.522 in [3]; 0.370 in [4]; 0.373 in experiment [5]; 0.719 in experiment [6]. In addition, the OD650 increase value in experiment [7] (NITE BP-02429 (PC: positive control), sugar source 2%, Table 7) is 0.608; in [7] (setting [10]), 0.608. Besides, in experiment [8], the “Proliferation rate (number of bacteria after mix-culturing for 8 h/number of bacteria after single bacterial culturing)” value is 1.41. For the same compound, the “proliferation promotion effect of the number of bacteria of MCC-525” value in experiment [8] (in the combination with Bifidobacterium bifidum (NITE BP-1252)) is “significantly higher”. Besides, the “Proliferation rate of MCC-525 (mix-cultured bacteria after 8 h/single bacterial culturing 8 h)” value in experiment [8] (setting [11]) came out at 3.87; in experiment [8] (setting [12]) it was 19.98; in [8] (setting [13]), 4.17; in [8] (setting [14]), 3.58; in experiment [8] (setting [15]), 4.21; in experiment [8] (setting [16]) it was 2.39. In experiment [8] (setting [17]), the “Proliferation rate of MCC-525 (mix-cultured bacteria after 8 h/single bacterial culturing 8 h)” value was determined as 6.03. The “number of proliferating bacteria of MCC-525 in combination with seven strains of Bifidobacterium bifidum compared to single bacterium culture” value in experiment [8] is recorded as “promoted”. For the same compound, the “assimilability by all the bacteria belonging to Bifidobacterium bifidum in Table 1” value in experiment [9] was “had assimilability”.
